The test system of experiment [1] is SiHa cells. Description: Cytotoxicity/anti-proliferative MTT assay, lactate as energy source. Type of experiment: cell-based. The settings on record: Homo sapiens, DMEM 10 mM L-lactate without glucose, 72 h. The procedure:
SiHa cells (human cervix squamous carcinoma) were routinely cultured in DMEM containing serum and antibiotics as previously described in Sonveaux, P. et al. J. Clin. Invest 2008 118, 3930. Two distinct media were used for the cytotoxicity assay, either DMEM containing 25 mM D-glucose (without pyruvate) or DMEM containing 10 mM L-lactate (without glucose). SiHa cells were seeded in flat-bottom 96-well plates in normal DMEM. After 6 h of incubation, the culture medium was replaced by 100 μl of glucose- or lactate-containing medium and incubated overnight for metabolic adaptation. SiHa cells were treated with the compounds of the invention at a concentration range of 0.01 μM to 100 μM. After a 72 h incubation at 37° C., cell medium was removed and replaced by freshly prepared MTT in PBS (1 mg/ml, 100 μl/well). After a 3 h incubation at 37° C., the plates were centrifuged (1000 g, 10 min at 4° C.) and the supernatant was removed before addition of DMSO (100 μl/well). Plates were kept for 10 min in the dark before reading at the spectrophotometer (Victor X4).
In general terms: Tetrazolium assays rely on reduction of a dye to a coloured formazan, in cell work by metabolically active cells.

Experiment [2] relates to SiHa cells. Description: Lactate consumption assay (inhibition of lactate influx). It is filed as cell-based. Particulars: Homo sapiens, 24 h treatment in lactate-containing medium. As for the experimental part:
SiHa cells were seeded on flat-bottom 24-well plates (500 000 cells/well) in normal DMEM. After 6 h of incubation, the culture medium was replaced by 1 ml of DMEM containing 10 mM lactate and incubated overnight for metabolic adaptation. Cells were then treated for 24 h with increasing concentrations of compounds (0.1, 1, 10 and 100 μM) in lactate-containing medium at 37° C. The supernatants were then centrifuged using deproteinizing columns (15 min, 10000 g at 4° C.) and lactate concentration was determined using the enzymatic assay commercialized by CMA Microdialysis AB on a CMA600 analyzer (Aurora Borealis).

Experiment [3] relates to SiHa cells xenograft. The experiment in a line: In vivo anti-cancer activity against cervix cancer (SiHa cells xenograft model). The settings on record: nude NMRI mice, 3 mg/kg daily IP, FIG. 1(A). The procedure:
7 weeks old female nude mice (Janvier®, 4-5 mice per group, Balb-c or NMRI) with various human cancer cell lines xenografts were used. SiHa cells were subcutaneously injected (10^6 to 2.10^6 (10^6 or 2.10^6) cells in sterile NaCl 0.9% per mouse) on the left flank of the mice (100 μl/mouse). […] Tumor volume was calculated as following: (length×width^2×π)/6 and expressed in mm^3. Tumor growth delay graphs and statistical analysis (Two-way ANOVA) were performed using GraphPad Prism 4 software.

Experiment [4] concerns SiHa cells xenograft. The experiment in a line: In vivo anti-cancer activity in combination with cisplatin against cervix cancer (SiHa cells xenograft model). The settings on record: nude NMRI mice, cisplatin 5 mg/kg IP day 0 and 7 plus compound 3 mg/kg daily IP day 1-6 and 8-11, FIG. 3. As for the experimental part: (§1) Seven weeks old female nude mice (Janvier®, 4-5 mice per group, NMRI), were used for the experiments. SiHa cells were subcutaneously injected (2.10^6 cells in sterile NaCl 0.9% per mouse) on the left flank of the mice (100 μl/mouse). The treatment of the mice with compounds of the invention was started when tumor xenografts reached approximately 5 mm of length and width (Caliper® measurement). […] Tumor volume was calculated as the following: (length×width^2×π)/6 and expressed in mm^3. Tumor growth delay graphs and statistical analysis (Two-way ANOVA) were performed using GraphPad Prism 4 software.

Experiment [5] has as its system SiHa cells. The experiment in a line: [14C]-lactate uptake assay (inhibition of lactate influx). Type of experiment: cell-based. The settings on record: Homo sapiens, 0.2 h, 2 μM [14C]-lactate for 12 min. As for the experimental part: After 6 h of incubation, the culture medium was replaced by 1 ml of DMEM containing 10 mM lactate and incubated overnight for metabolic adaptation.

Experiment [6] relates to HCT116 cells xenograft. Description: In vivo anti-cancer activity against colon cancer (HCT116 cells xenograft model). Particulars: nude NMRI mice, 3 mg/kg daily IP, FIG. 2. The procedure:
as §1, with “HCT116” for “SiHa”

For `O=C(O)c1cc2ccc(OCc3cccc(F)c3)cc2oc1=O` [cpd 7, 7-((3-fluorobenzyl)oxy)-2-oxo-2H-chromene-3-carboxylic acid], in experiment [1], the CC50 (as a rule, the concentration at which the toxic effect on the cells reaches its halfway point) worked out at 1170 nM.
As for `O=C(O)c1cc2ccc(N(Cc3ccccc3)Cc3ccccc3)cc2oc1=O` [cpd 51, 7-(dibenzylamino)-2-oxo-2H-chromene-3-carboxylic acid], in experiment [1], the midpoint of cytotoxicity, the CC50, lay at 12700 nM. This CC50 is about 11-fold higher than that of the compound before.
Turning to `O=C(O)c1cc2ccc(OCc3ccc(C(F)(F)F)cc3)cc2oc1=O` [cpd 28, 2-oxo-7-((4-(trifluoromethyl)benzyl)oxy)-2H-chromene-3-carboxylic acid], the CC50 in experiment [1] worked out at 6860 nM.
Still for that read-out and setting: next, `O=C(O)c1cc2ccc(OCc3ccccc3Cl)cc2oc1=O` [cpd 11, 7-((2-chlorobenzyl)oxy)-2-oxo-2H-chromene-3-carboxylic acid]: 4230 nM; `CC(C)=CCC/C(C)=C/COc1ccc2cc(C(=O)O)c(=O)oc2c1` [cpd 17, (E)-7-((3,7-dimethylocta-2,6-dien-1-yl)oxy)-2-oxo-2H-chromene-3-carboxylic acid]: 11700 nM.
In turn, `COc1ccc2cc(C(=O)O)c(=O)oc2c1` [cpd 2, 7-methoxy-2-oxo-2H-chromene-3-carboxylic acid] had a CC50 in experiment [1] of 9800 nM. Also, the IC50 (commonly the concentration needed to halve the response being measured) in experiment [2] turned out to be 2300 nM.
Consider `CC(C)CN(Cc1ccccc1)c1ccc2cc(C(=O)O)c(=O)oc2c1` [cpd 43, 7-(benzyl(isobutyl)amino)-2-oxo-2H-chromene-3-carboxylic acid], for which, in experiment [1], the CC50 is 16300 nM.
In experiment [1], `O=C(O)c1cc2ccc(OCc3ccc(F)cc3)cc2oc1=O` [cpd 26, 7-((4-fluorobenzyl)oxy)-2-oxo-2H-chromene-3-carboxylic acid] yielded a CC50 of 3900 nM. Also, the IC50 in experiment [2] is 1250 nM.
The like results for `O=C(O)c1cc2ccc(OCc3ccccc3)cc2oc1=O` [cpd 9, 7-(benzyloxy)-2-oxo-2H-chromene-3-cartboxylic acid] were, in that order, 9100 nM and 1900 nM.
`CN(CC1CCCCC1)c1ccc2cc(C(=O)O)c(=O)oc2c1` [cpd 48, 7-((cyclohexylmethyl)(methyl)amino)-2-oxo-2H-chromene-3-carboxylic acid] returned a CC50 in experiment [1] of 200 nM.
The compound `CC(C)CN(C)c1ccc2cc(C(=O)O)c(=O)oc2c1` [cpd 45, 7-(isobutyl(methyl)amino)-2-oxo-2H-chromene-3-carboxylic acid] showed a CC50 in experiment [1] of 220 nM.
For `COc1ccc(OC)c(COc2ccc3cc(C(=O)O)c(=O)oc3c2)c1` [cpd 22], the CC50 in experiment [1] was 702 nM.
On the same count and under the same terms, next, `CN(Cc1cccc(F)c1)c1ccc2cc(C(=O)O)c(=O)oc2c1` [cpd 47, 7-((3-fluorobenzyl)(methyl)amino)-2-oxo-2H-chromene-3-carboxylic acid]: 40 nM; `COc1cccc(CN(C)c2ccc3cc(C(=O)O)c(=O)oc3c2)c1` [cpd 49, 7-((3-methoxybenzyl)(methyl)amino)-2-oxo-2H-chromene-3-carboxylic acid]: 70 nM.
With `O=C(O)c1cc2ccc(OCCc3ccccc3)cc2oc1=O` [cpd 15, 2-oxo-7-phenethoxy-2H-chromene-3-carboxylic acid], in experiment [1], the CC50 worked out at 5600 nM. 2400 nM corresponded to half-maximal inhibition in experiment [2] (IC50).
In turn, `COc1cccc(COc2ccc3cc(C(=O)O)c(=O)oc3c2)c1` [cpd 13] had a CC50 in experiment [1] of 4600 nM.
`O=C(O)c1cc2ccc(OCn3nnc4ccccc43)cc2oc1=O` [cpd 24, 7-((1H-benzo[d][1,2,3]triazol-1-yl)methoxy)-2-oxo-2H-chromene-3-carboxylic acid]: half-maximal cytotoxicity in experiment [1] (CC50) was put at 1100 nM. Compared with the last compound, the CC50 is about 4.2-fold lower.
With `O=C(O)c1cc2ccc(NCc3ccccc3)cc2oc1=O` [cpd 39, 7-(benzylamino)-2-oxo-2H-chromene-3-carboxylic acid], the CC50 in experiment [1] was 1790 nM.
On the same count and under the same terms, then `CCCN(Cc1ccccc1)c1ccc2cc(C(=O)O)c(=O)oc2c1` [cpd 44, 7-(benzyl(propyl)amino)-2-oxo-2H-chromene-3-carboxylic acid], with 11100 nM.
The compound `CCN(Cc1ccccc1)c1ccc2cc(C(=O)O)c(=O)oc2c1` [cpd 41, 7-(benzyl(ethyl)amino)-2-oxo-2H-chromene-3-carboxylic acid] returned a CC50 in experiment [1] of 1900 nM.
Regarding `O=C(Nc1ccc2cc(C(=O)O)c(=O)oc2c1)c1ccccc1` [cpd 116, 7-benzamido-2-oxo-2H-chromene-3-carboxylic acid], in experiment [1], it took 1500 nM to reach half-maximal cytotoxicity (CC50).
Turning to `O=C(O)c1cc2ccc(N3CCCC3)cc2oc1=O` [cpd 33, 2-oxo-7-(pyrrolidin-1-yl)-2H-chromene-3-carboxylic acid], the 50% cytotoxic concentration (CC50) in experiment [1] was 14300 nM.
As for `CN(Cc1cccs1)c1ccc2cc(C(=O)O)c(=O)oc2c1` [cpd 46, 7-(methyl(thiophen-2-ylmethyl)amino)-2-oxo-2H-chromene-3-carboxylic acid], it took 210 nM to reach half-maximal cytotoxicity in experiment [1] (CC50).
In the case of `CN(C)c1ccc2cc(C(=O)O)c(=O)oc2c1` [cpd 35, 7-(dimethlamino)-2-oxo-2H-chromene-3-carboxylic acid], it took 2900 nM to reach half-maximal cytotoxicity in experiment [1] (CC50). Moreover, it took 1400 nM to reach half-maximal inhibition in experiment [2] (IC50).
On to `O=C(O)c1cc2ccc(OCc3cc(C(F)(F)F)cc(C(F)(F)F)c3)cc2oc1=O` [cpd 3, 7-((3,5-bis(trifluoromethyl)benzyl)oxy)-2-oxo-2H-chromene-3-carboxylic acid], for which, in experiment [1], the CC50 was 600 nM.
In the case of `O=C(O)c1cc2cc3c4c(c2oc1=O)CCCN4CCC3` [cpd 37, 11-oxo-2,3,5,6,7,11-hexahydro-1H-pyrano[2,3 - f]pyrido[3,2,1-ij]quinoline-10-carboxylic acid], the CC50 in experiment [1] stood at 1200 nM. Besides, the IC50 in experiment [2] is 1300 nM.
In the case of `O=C(O)c1cc2ccc(N3CCOCC3)cc2oc1=O` [cpd 34, 7-morpholino-2-oxo-2H-chromene-3-carboxylic acid], the CC50 in experiment [1] is 17500 nM. Further, the IC50 in experiment [2] stood at 7900 nM.
In experiment [1], `O=C(O)c1cc2ccc(OC3Cc4ccccc4C3)cc2oc1=O` [cpd 30, 7-((2,3-dihydro-1H-inden-2-yl)oxy)-2-oxo-2H-chromene-3-carboxylic acid] displayed a CC50 of 7800 nM.
`CN(Cc1ccccc1)c1ccc2cc(C(=O)O)c(=O)oc2c1` [cpd 31, 7-(benzyl(methyl)amino)-2-oxo-2H-chromene-3-carboxylic acid] returned a CC50 in experiment [1] of 220 nM. Besides, the “Tumor growth delay (tumor volume)” value in experiment [3] and in experiment [6] was “clear tumor growth delay” each time. Further, the results for the IC50 in experiment [2] and in experiment [5] were 59 nM and 11 nM, respectively. Besides, in experiment [4], the “Delay in tumor relapse (tumor volume)” value is “clear delay in tumor relapse”.
On to `O=C(O)c1cc2ccc(OCc3ccc(Cl)c(Cl)c3)cc2oc1=O` [cpd 19, 7-((3,4-dichlorobenzyl)oxy)-2-oxo-2H-chromene-3-carboxylic acid], for which the CC50 in experiment [1] turned out to be 68400 nM.
`CN(CC1CCOCC1)c1ccc2cc(C(=O)O)c(=O)oc2c1` [cpd 50, 7-(methyl((tetrahydro-2H-pyran-4-yl)methyl)amino)-2-oxo-2H-chromene-3-carboxylic acid] registered a CC50 in experiment [1] of 100 nM.
As to `O=C(O)c1cc2ccc(OCc3cccc4ccccc34)cc2oc1=O` [cpd 5, 7-(naphthalen-1-ylmethoxy) 2-oxo-2H-chromene-3-carboxylic acid], in experiment [1], the CC50 was 1090 nM.

The values above are taken from patent US20160115146A1, “3-CARBOXY SUBSTITUTED COUMARIN DERIVATIVES WITH A POTENTIAL UTILITY FOR THE TREATMENT OF CANCER DISEASES” (UNIVERSITE CATHOLIQUE DE LOUVAIN, priority 2013, published 2016).
